Source: article PMC10327353 (Breast Cancer Research : BCR, 2023)

Assay: Phase 1 study: safety and tolerability
Format: in vivo
Method: The maximum tolerated dose (MTD) of DZD1516 was defined based on safety data and the Bayesian optimal interval (BOIN) design (Additional file 1). The definition of DLT is provided in Additional file 1.
The AE grading was assessed according to the NCI-Common Terminology Criteria for Adverse Events (CTCAE) (version 5.0) and was monitored until 28 days after the last dose.
Eligible patients received single oral dosing of DZD1516 on Cycle 0 Day 1 (C0D1), followed by a 7-day washout. Twice daily oral dosing (bid) of DZD1516 was commenced from C1D1 in a continuous 21-day cycle until disease progression, unacceptable toxicity, or withdrawal of consent. All doses were taken under fed conditions (within 30 minutes after a meal).
Planned dosing consisted of 25, 50, 100, 200, 300, and 400 mg. Each dose escalation cohort will comprise a minimum of three and a maximum of six evaluable patients (except only one patient in the starting dose cohort). The maximum tolerated dose of DZD1516 was defined according to safety data and the Bayesian optimal interval (BOIN) design. Dose escalation/de-escalation rule with target toxicity rate for the MTD is 0.30 with interval of (0.20, 0.33).
DLTs were any adverse event (AE) not clearly attributable to the patient’s disease, including ≥ grade 4 hematological toxicities present for ≥ 4 days, grade 3 thrombocytopenia with bleeding, or grade 4 thrombocytopenia lasting for > 5 days, ≥ grade 3 non-hematological toxicities that is dose-limiting in the judgment of the investigators. Any other toxicity that is greater than that at baseline, is clinically significant or unacceptable, and is judged to be a DLT by the SRC. Exceptions included alopecia of any grade and isolated grade 3 laboratory change without clinical sequelae or clinical significance.
Safety evaluations were conducted at screening, on Day 1, 8, and 15 of Cycle 1, on Day 1 of each subsequent treatment cycle, at the end-of-treatment visit, and clinically indicated. Safety assessments included clinical laboratory measurements (hematology, chemistry, coagulation, and urinalysis), electrocardiogram (ECG), Echocardiogram/MUGA scan, ECOG performance status, vital signs, and physical examinations.

COc1cc(O[C@H]2CCN(C)CC2(F)F)c2c(Nc3ccc(Oc4ccn5ncnc5c4)c(C)c3)ncnc2c1 [DZD1516]
4 (100.0) n (%): Participants with any TEAE, Any Grade (100 mg (N = 4)) | Subjects with any TEAE (100 mg (N = 4)) | Subjects with any drug-related TEAE (100 mg (N = 4))
1 (20.0) n (%): Anemia, Any Grade (200 mg (N = 5)) | Any TEAE: Grade 3 (200 mg (N = 5)) | Aspartate aminotransferase increased, Any Grade (200 mg (N = 5)) | Blood and lymphatic system disorders, Any Grade (200 mg (N = 5)) | Cardiac disorders, Any Grade (200 mg (N = 5)) | Constipation, Any Grade (200 mg (N = 5)) | Drug-related TEAE: Grade 3 (200 mg (N = 5)) | Fatigue, Any Grade (200 mg (N = 5)) | Headache, Any Grade (200 mg (N = 5))
1 (25.0) n (%): Nervous system disorders, Any Grade (50 mg (N = 4)) | Platelet count decreased, Any Grade (50 mg (N = 4)) | Proteinuria, Any Grade (50 mg (N = 4)) | Renal and urinary disorders, Any Grade (50 mg (N = 4)) | White blood cell count decreased, Any Grade (50 mg (N = 4)) | Anemia, Any Grade (100 mg (N = 4)) | Any TEAE: Grade 3 (100 mg (N = 4)) | Any TEAE: Leading to treatment interruption (100 mg (N = 4)) | Any TEAE: SAE (100 mg (N = 4)) | Blood and lymphatic system disorders, Any Grade (100 mg (N = 4)) | Constipation, Any Grade (100 mg (N = 4)) | Decreased appetite, Any Grade (100 mg (N = 4)) | Dizziness, Any Grade (100 mg (N = 4)) | Drug-related TEAE: Grade 3 (100 mg (N = 4)) | Drug-related TEAE: Leading to treatment interruption (100 mg (N = 4)) | Drug-related TEAE: SAE (100 mg (N = 4)) | Fatigue, Any Grade (100 mg (N = 4)) | Gastrointestinal disorders, ≥ Grade 3 (100 mg (N = 4)) | General disorders and administration site conditions, Any Grade (100 mg (N = 4)) | Investigations, ≥ Grade 3 (100 mg (N = 4)) | Participants with any TEAE, ≥ Grade 3 (100 mg (N = 4)) | Platelet count decreased, Any Grade (100 mg (N = 4)) | Renal and urinary disorders, Any Grade (100 mg (N = 4)) | Vomiting, ≥ Grade 3 (100 mg (N = 4))
0 (0.0) n (%): Nervous system disorders, ≥ Grade 3 (50 mg (N = 4)) | Participants with any TEAE, ≥ Grade 3 (50 mg (N = 4)) | Platelet count decreased, ≥ Grade 3 (50 mg (N = 4)) | Proteinuria, ≥ Grade 3 (50 mg (N = 4)) | Renal and urinary disorders, ≥ Grade 3 (50 mg (N = 4)) | Vomiting, Any Grade (50 mg (N = 4)) | Vomiting, ≥ Grade 3 (50 mg (N = 4)) | White blood cell count decreased, ≥ Grade 3 (50 mg (N = 4)) | Alanine aminotransferase increased, Any Grade (100 mg (N = 4)) | Alanine aminotransferase increased, ≥ Grade 3 (100 mg (N = 4)) | Anemia, ≥ Grade 3 (100 mg (N = 4)) | Any TEAE: Leading to death (100 mg (N = 4)) | Any TEAE: Leading to dose reduction (100 mg (N = 4)) | Any TEAE: Leading to treatment discontinuation (100 mg (N = 4)) | Aspartate aminotransferase increased, Any Grade (100 mg (N = 4)) | Aspartate aminotransferase increased, ≥ Grade 3 (100 mg (N = 4)) | Blood and lymphatic system disorders, ≥ Grade 3 (100 mg (N = 4)) | Blood bilirubin increased, Any Grade (100 mg (N = 4)) | Blood bilirubin increased, ≥ Grade 3 (100 mg (N = 4)) | Cardiac disorders, Any Grade (100 mg (N = 4)) | Cardiac disorders, ≥ Grade 3 (100 mg (N = 4)) | Constipation, ≥ Grade 3 (100 mg (N = 4)) | Decreased appetite, ≥ Grade 3 (100 mg (N = 4)) | Dizziness, ≥ Grade 3 (100 mg (N = 4)) | Drug-related TEAE: Leading to death (100 mg (N = 4)) | Drug-related TEAE: Leading to dose reduction (100 mg (N = 4)) | Drug-related TEAE: Leading to treatment discontinuation (100 mg (N = 4)) | Fatigue, ≥ Grade 3 (100 mg (N = 4)) | General disorders and administration site conditions, ≥ Grade 3 (100 mg (N = 4)) | Headache, ≥ Grade 3 (100 mg (N = 4)) | Hemoglobin decreased, Any Grade (100 mg (N = 4)) | Hemoglobin decreased, ≥ Grade 3 (100 mg (N = 4)) | Lipase increased, Any Grade (100 mg (N = 4)) | Lipase increased, ≥ Grade 3 (100 mg (N = 4)) | Malaise, Any Grade (100 mg (N = 4)) | Malaise, ≥ Grade 3 (100 mg (N = 4)) | Metabolism and nutrition disorders, ≥ Grade 3 (100 mg (N = 4)) | Musculoskeletal and connective tissue disorders, Any Grade (100 mg (N = 4)) | Musculoskeletal and connective tissue disorders, ≥ Grade 3 (100 mg (N = 4)) | Nausea, Any Grade (100 mg (N = 4)) | Nausea, ≥ Grade 3 (100 mg (N = 4)) | Nervous system disorders, ≥ Grade 3 (100 mg (N = 4)) | Platelet count decreased, ≥ Grade 3 (100 mg (N = 4)) | Proteinuria, Any Grade (100 mg (N = 4)) | Proteinuria, ≥ Grade 3 (100 mg (N = 4)) | Renal and urinary disorders, ≥ Grade 3 (100 mg (N = 4)) | White blood cell count decreased, Any Grade (100 mg (N = 4)) | White blood cell count decreased, ≥ Grade 3 (100 mg (N = 4)) | Alanine aminotransferase increased, Any Grade (200 mg (N = 5)) | Alanine aminotransferase increased, ≥ Grade 3 (200 mg (N = 5)) | Anemia, ≥ Grade 3 (200 mg (N = 5)) | Any TEAE: Leading to death (200 mg (N = 5)) | Any TEAE: Leading to dose reduction (200 mg (N = 5)) | Any TEAE: Leading to treatment discontinuation (200 mg (N = 5)) | Any TEAE: Leading to treatment interruption (200 mg (N = 5)) | Any TEAE: SAE (200 mg (N = 5)) | Aspartate aminotransferase increased, ≥ Grade 3 (200 mg (N = 5)) | Blood and lymphatic system disorders, ≥ Grade 3 (200 mg (N = 5)) | Blood bilirubin increased, ≥ Grade 3 (200 mg (N = 5)) | Cardiac disorders, ≥ Grade 3 (200 mg (N = 5)) | Constipation, ≥ Grade 3 (200 mg (N = 5)) | Decreased appetite, Any Grade (200 mg (N = 5)) | Decreased appetite, ≥ Grade 3 (200 mg (N = 5)) | Dizziness, Any Grade (200 mg (N = 5)) | Dizziness, ≥ Grade 3 (200 mg (N = 5)) | Drug-related TEAE: Leading to death (200 mg (N = 5)) | Drug-related TEAE: Leading to dose reduction (200 mg (N = 5)) | Drug-related TEAE: Leading to treatment discontinuation (200 mg (N = 5)) | Drug-related TEAE: Leading to treatment interruption (200 mg (N = 5)) | Drug-related TEAE: SAE (200 mg (N = 5)) | Fatigue, ≥ Grade 3 (200 mg (N = 5)) | Gastrointestinal disorders, ≥ Grade 3 (200 mg (N = 5)) | General disorders and administration site conditions, ≥ Grade 3 (200 mg (N = 5))
2 (40.0) n (%): Blood bilirubin increased, Any Grade (200 mg (N = 5)) | General disorders and administration site conditions, Any Grade (200 mg (N = 5))
3 (60.0) n (%): Gastrointestinal disorders, Any Grade (200 mg (N = 5))
2 (50.0) n (%): Gastrointestinal disorders, Any Grade (100 mg (N = 4)) | Headache, Any Grade (100 mg (N = 4)) | Vomiting, Any Grade (100 mg (N = 4))
3 (75.0) n (%): Participants with any TEAE, Any Grade (50 mg (N = 4)) | Subjects with any TEAE (50 mg (N = 4)) | Subjects with any drug-related TEAE (50 mg (N = 4)) | Investigations, Any Grade (100 mg (N = 4)) | Metabolism and nutrition disorders, Any Grade (100 mg (N = 4)) | Nervous system disorders, Any Grade (100 mg (N = 4))
